As a reminder, the IC50 is the concentration that inhibits the measured activity by half. A low value points to greater potency.

The results in this text go back to ChEMBL document CHEMBL1132080, “Investigation of the S3 site of thrombin: design, synthesis and biological activity of 4-substituted 3-amino-2-pyridones incorporating P1-argininals” (Bioorg Med Chem Lett, 1999).

Structures are written as SMILES.

The target in assay [1] is Coagulation factor X (Homo sapiens, UniProt P00742). Put plainly: Concentration required for the in vitro inhibitory activity against human enzyme, Factor Xa cleavage of the chromogenic substrate.
Coagulation factor X, sequence (P00742 41-179 limits assumed): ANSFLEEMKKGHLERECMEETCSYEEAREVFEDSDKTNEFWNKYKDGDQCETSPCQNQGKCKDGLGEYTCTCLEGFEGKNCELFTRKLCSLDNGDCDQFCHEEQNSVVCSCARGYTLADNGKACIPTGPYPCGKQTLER
Coagulation factor X, sequence (P00742 235-488 limits assumed): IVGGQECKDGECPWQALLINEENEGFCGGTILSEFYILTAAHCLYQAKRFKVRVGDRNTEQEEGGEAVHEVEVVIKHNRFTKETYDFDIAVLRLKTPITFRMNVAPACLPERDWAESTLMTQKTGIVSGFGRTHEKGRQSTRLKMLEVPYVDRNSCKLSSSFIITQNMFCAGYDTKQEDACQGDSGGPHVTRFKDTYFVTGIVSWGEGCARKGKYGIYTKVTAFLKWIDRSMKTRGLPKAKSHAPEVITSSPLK
The target in assay [2] is Plasminogen (Homo sapiens, UniProt P00747). The assay can be described thus: Concentration required for the in vitro inhibitory activity against human enzyme, Plasmin cleavage of the chromogenic substrate.
Plasminogen, sequence (P00747 97-580 limits assumed): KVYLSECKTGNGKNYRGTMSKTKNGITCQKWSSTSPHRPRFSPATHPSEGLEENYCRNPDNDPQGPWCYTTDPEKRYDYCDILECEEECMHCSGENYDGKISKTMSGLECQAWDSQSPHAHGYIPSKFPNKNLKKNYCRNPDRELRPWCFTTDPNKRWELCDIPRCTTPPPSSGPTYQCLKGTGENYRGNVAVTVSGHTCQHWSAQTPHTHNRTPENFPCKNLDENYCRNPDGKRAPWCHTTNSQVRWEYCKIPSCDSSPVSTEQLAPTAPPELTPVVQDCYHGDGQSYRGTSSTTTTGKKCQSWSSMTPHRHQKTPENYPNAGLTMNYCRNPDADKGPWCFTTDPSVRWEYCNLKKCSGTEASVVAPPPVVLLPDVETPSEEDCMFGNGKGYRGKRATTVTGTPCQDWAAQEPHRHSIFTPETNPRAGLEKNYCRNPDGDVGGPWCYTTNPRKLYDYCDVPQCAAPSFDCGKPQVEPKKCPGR
Plasminogen, sequence (P00747 581-810 limits assumed): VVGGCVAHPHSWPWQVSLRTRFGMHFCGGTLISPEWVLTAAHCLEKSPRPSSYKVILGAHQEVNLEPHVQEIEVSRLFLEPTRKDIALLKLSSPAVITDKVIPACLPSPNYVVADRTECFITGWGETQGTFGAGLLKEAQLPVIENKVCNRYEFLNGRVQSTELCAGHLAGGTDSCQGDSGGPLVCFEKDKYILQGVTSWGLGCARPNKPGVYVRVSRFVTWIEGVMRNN
For assay [3], the target named is Serine protease 1 (Homo sapiens, UniProt P07477). Put plainly: Concentration required for the in vitro inhibitory activity against human enzyme, trypsin cleavage of the chromogenic substrate.
Serine protease 1, sequence (P07477 whole entry): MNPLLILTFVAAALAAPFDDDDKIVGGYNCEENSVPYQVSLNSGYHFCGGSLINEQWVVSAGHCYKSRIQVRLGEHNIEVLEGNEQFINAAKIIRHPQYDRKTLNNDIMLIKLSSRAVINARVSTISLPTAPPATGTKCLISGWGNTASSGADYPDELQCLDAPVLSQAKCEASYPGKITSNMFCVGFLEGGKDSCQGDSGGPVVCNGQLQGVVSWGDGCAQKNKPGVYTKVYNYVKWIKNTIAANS
The target of assay [4] is Prothrombin (Homo sapiens, UniProt P00734). The assay can be described thus: Concentration required for the in vitro inhibitory activity against human enzyme, thrombin cleavage of the chromogenic substrate.

For the molecule `CS(=O)(=O)Nc1c(CCC2CCCCC2)ccn(CC(=O)N[C@H]2CCCN(C(=N)N)C2O)c1=O` (some centres not stated), the IC50 was 2.5 µM in assay [1], over 2.5 µM in assay [2], 0.257 µM in assay [3] and 0.256 µM in assay [4].

For `CS(=O)(=O)Nc1c(CCCc2ccccc2)ccn(CC(=O)N[C@H]2CCCN(C(=N)N)C2O)c1=O` (some centres not stated), the half-inhibitory concentration (IC50) in assay [1] was over 2.5 µM; in assay [2], over 2.5 µM; in assay [3], 0.479 µM; in assay [4], 0.203 µM.

`N=C(N)N1CCC[C@H](NC(=O)CN2CCCC(NS(=O)(=O)Cc3ccccc3)C2=O)C1O` (some centres not stated): the IC50 was 2.5 µM in assay [1], over 2.5 µM in assay [2], 0.791 µM in assay [3] and 0.0062 µM in assay [4].

As to `CC(=O)Nc1c(CCc2ccccc2)ccn(CC(=O)N[C@H]2CCCN(C(=N)N)C2O)c1=O` (some centres not stated), the IC50 was over 2.5 µM in assay [1], over 2.5 µM in assay [2], 1.22 µM in assay [3] and 0.472 µM in assay [4].

As for `CNS(=O)(=O)Nc1c(CCc2ccccc2)ccn(CC(=O)N[C@H]2CCCN(C(=N)N)C2O)c1=O` (some centres not stated), the IC50 in assay [1] came to 2.5 µM; in assay [2], 0.25 µM; in assay [3] it was 0.103 µM; in assay [4] it was 0.0505 µM.

For `N=C(N)N1CCC[C@H](NC(=O)Cn2ccc(CCc3ccccc3)c(NS(=O)(=O)c3ccccc3)c2=O)C1O` (some centres not stated), the IC50 was 2.36 µM in assay [1], over 2.5 µM in assay [2], 0.188 µM in assay [3] and 0.0891 µM in assay [4].

Regarding `CS(=O)(=O)Nc1c(CCc2ccccc2)ccn(CC(=O)N[C@H]2CCCN(C(=N)N)C2O)c1=O` (some centres not stated), the IC50 in assay [1] was over 2.5 µM; in assay [2] it was over 2.5 µM; in assay [3] it was 0.135 µM; in assay [4] it was 0.00795 µM.

As for `N=C(N)N1CCC[C@H](NC(=O)Cn2ccc(CCc3ccccc3)c(NS(=O)(=O)CC(F)(F)F)c2=O)C1O` (some centres not stated), the half-inhibitory concentration (IC50) in assay [1] is over 2.5 µM; in assay [2], over 2.5 µM; in assay [3] it was 1.22 µM; in assay [4], 0.194 µM.
